Results on four substances are retold here after publication PMC7534198, “The structural basis for the selectivity of sulfonamido dicarbaboranes toward cancer-associated carbonic anhydrase IX” (Journal of Enzyme Inhibition and Medicinal Chemistry, 2020).

The target in test [1] is T1, CA II (Homo sapiens, UniProt P00918).
T1 construct: gene CA2; recombinant, expressed in E. coli and purified
As to the kind of experiment: stopped-flow CO2 hydration. Format: biochemical. Particulars: 8.5 mM CO2, 20 mM HEPES-Na pH 7.5, 20 mM Na2SO4, 25 °C, 2.5 nM enzyme; Cheng-Prusoff; read-out: In vitro inhibition / Ki (CA II). An excerpt:
stopped-flow CO2 hydration on CA II

The target in test [2] is T2, CA IX (Homo sapiens, UniProt Q16790, C174S).
T2 construct: gene CA9; extracellular part, PG and CA domains, residues 38-391, C174S; expressed in HEK 293 cells and purified
Put plainly: stopped-flow CO2 hydration. Format: biochemical. The settings on record: 8.5 mM CO2, 20 mM HEPES-Na pH 7.5, 20 mM Na2SO4, 25 °C, 0.0025% DDM, 0.5 nM enzyme; Cheng-Prusoff; read-out: In vitro inhibition / Ki (CA IX). An excerpt: stopped-flow CO2 hydration on CA IX

As to 1-H2NSO2(CH2)5-1,2-closo-C2B10H11 [5a], the Ki in test [1] is 1.3 ± 0.122 µM; in test [2] it was 0.0148 ± 0.00198 µM.
Regarding 1-H2NSO2(CH2)6–1,2-closo-C2B10H11 [6a], the Ki in test [1] is 0.821 ± 0.0707 µM; in test [2], 0.0447 ± 0.00486 µM.
For “[7-H2NSO2-(CH2)5–7,8-nido-C2B9H11]K [5b^−]”, the Ki in test [1] came to 0.299 ± 0.026 µM; in test [2], 0.0106 ± 0.00137 µM.
With “[7-H2NSO2-(CH2)6–7,8-nido-C2B9H11]K [6b^−]”, the Ki in test [1] was found to be 0.0295 ± 0.00332 µM; in test [2] it was 0.0293 ± 0.00739 µM.
